Assay results published in US12274751B2, “Composition and method of the use of colchicine oral liquid” (priority 2016, dated 2025).

Tests used:
[1] = in vitro; details: human, Caco-2
Protocol: To verify the Caco-2 cell monolayers were properly formed, aliquots of the cell buffers were analyzed by fluorescence to determine the transport of the impermeable dye Lucifer Yellow.

[2] = Stability of colchicine solution, colchicine assay (% label claim); format: physicochemical; details: API (colchicine drug substance), calculated on the anhydrous, solvent-free basis
Protocol: The colchicine solution is formulated and assayed for colchicine levels. Stability of the claimed formulation was tested at room temperature, 30° C., and 40° C. and assayed for the colchicine. […] The fact that the oral solution was so stable after 6 months at an accelerated temperature (40 degrees Celsius, which corresponds to 24 months at room temperature) was quite surprising. Solutions of colchicine for oral administration to humans have not been developed because they were believed to be too unstable. The data presented herein show for the first time that an oral colchicine solution can remain stable with minimal degradants and thus have a long shelf life consistent with commercial formulations.
The colchicine solution in Table 4 was packaged in a 190 mL HDPE bottle and assayed by HPLC cUSP.
The label claim of the liquid solution is 0.12 mg/ml and the assay results of the active ingredient are reported as percent of label claim. For instance, the label claim of an exemplary colchicine solution of the invention is 0.12 mg/ml. The FDA requirement for stability results for drugs is 90-110% label claim.

[3] = in the presence of glycerin; Habib et al. 1989; cited from earlier work

Row | Compound | Papp A→B [1] [×10⁻⁶ cm/s] | Stability Results (% Label Claim) [2] [% Label Claim] | loss by photodegradation in solution [3] [%] | Papp B→A [1] [×10⁻⁶ cm/s]
1 | CNC(=C[N+](=O)[O-])NCCSCc1ccc(CN(C)C)o1 [ranitidine] | 0.27 | – | – | –
2 | COc1cc2c(c(OC)c1OC)-c1ccc(OC)c(=O)cc1[C@@H](NC(C)=O)CC2 [Colchicine, (−)-N-[(7S,12aS)-1,2,3,10-tetramethoxy-9-oxo-5,6,7,9-tetrahydrobenzo[a]heptalen-7-yl]-acetamide] | – | 91.8 | ≤ 50 | –
3 | COCCc1ccc(OCC(O)CNC(C)C)cc1 (centres unmarked) [metoprolol] | 13.7 | – | – | 27.2
